Numbered stars: 1 amine (or outer) side, 2 acyl side, 3 side chain; on linkers, the order of the positions; unused ones are H or OH. Square brackets hold non-standard residues; d marks the D form. Peptide text beside a SMILES is read from it. * marks the point of attachment. ξ: configuration not given here. 4Abz = Nc1ccc(C(=O)O)cc1; CO = O=C([*:1])[*:2]; ξV = CC(C)C(N)C(=O)O; NHPh = c1ccc(N*)cc1; ξP = O=C(O)C1CCCN1; CF3 = FC(F)(F)*
Assays:
Mesocricetus auratus [1] = species: Mesocricetus auratus; assay: Reduction in wet lung weight relative to the body weight in hamsters
Mesocricetus auratus [2] = assay: Oral administration at a dose of 37.5 mg/kg 30 min prior to HNE and reduction in the number of white blood cells was reported
Neutrophil elastase = biological target: T1, Neutrophil elastase (Homo sapiens, UniProt P08246); assay: Inhibitory activity against Human Neutrophil Elastase by HNE-catalyzed hydrolysis of MeO-Suc-Ala-Ala-Pro-Val-pNa
T1 sequence (P08246 whole entry): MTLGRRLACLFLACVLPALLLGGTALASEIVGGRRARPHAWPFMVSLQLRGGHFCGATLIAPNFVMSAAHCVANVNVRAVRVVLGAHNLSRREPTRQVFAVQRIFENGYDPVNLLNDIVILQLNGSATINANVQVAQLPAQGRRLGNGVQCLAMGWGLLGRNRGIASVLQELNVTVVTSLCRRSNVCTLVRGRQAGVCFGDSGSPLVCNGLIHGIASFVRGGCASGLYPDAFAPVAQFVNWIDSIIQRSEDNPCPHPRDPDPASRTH

Mesocricetus auratus [3] = assay: Oral administration at a dose of 37.5 mg/kg 30 min prior to HNE (100 mg/hamster) and reduction in the number of white blood cells was reported

| Compound | Lw/Bw (Mesocricetus auratus [1]) | Reduction (Mesocricetus auratus [2]) [%] | Ki (Neutrophil elastase) [nM] | Reduction (Mesocricetus auratus [3]) [%] |
| --- | --- | --- | --- | --- |
| CC(C)C(NC(=O)C1CCCN1C(=O)[C@@H](NC(=O)c1ccc(N(C)C)cc1)C(C)C)C(=O)C(F)(F)F (stereo partly specified) | 36 | 0 | 2.5 | – |
| CC(C)[C@H](NC(=O)c1c[nH]cn1)C(=O)N1CCC[C@H]1C(=O)N[C@H](C(=O)C(F)(F)F)C(C)C | -42 | – | 63 | -267 |
| CC(C)[C@H](NC(=O)c1ccc(O)cc1)C(=O)N1CCC[C@H]1C(=O)N[C@H](C(=O)C(F)(F)F)C(C)C | 35 | 28 | 3.9 | – |
| CC(C)[C@H](NC(=O)OCc1ccccc1)C(=O)N1CCC[C@H]1C(=O)N[C@H](C(=O)C(F)(F)F)C(C)C (HELM PEPTIDE1{[O=C(OCc1ccccc1)[*:2]].V.P.V.[FC(F)(F)[*:1]]}$$$$V2.0) | 53 | 38 | – | – |
| CCOC(=O)c1ccc(/C=C/C(=O)N[C@H](C(=O)N2CCCC2C(=O)NC(C(=O)C(F)(F)F)C(C)C)C(C)C)cc1 (stereo partly specified) | -122 | – | 0.43 | -48 |
| CC(C)C(NC(=O)C1CCCN1C(=O)[C@@H](NC(=O)c1ccc(Oc2ccccc2)cc1)C(C)C)C(=O)C(F)(F)F (stereo partly specified) | 31 | 78 | 0.41 | – |
| COc1ccc(S(=O)(=O)N[C@H](C(=O)N2CCCC2C(=O)NC(C(=O)C(F)(F)F)C(C)C)C(C)C)cc1 (stereo partly specified) | 29 | – | 8 | -42 |
| CC(C)[C@H](NC(=O)C(F)(F)F)C(=O)N1CCC[C@H]1C(=O)N[C@H](C(=O)C(F)(F)F)C(C)C (HELM PEPTIDE1{[O=C(C(F)(F)F)[*:2]].V.P.V.[FC(F)(F)[*:1]]}$$$$V2.0) | 67 | 91 | 15 | – |
| COC(=O)c1ccc(C(=O)N[C@H](C(=O)N2CCCC2C(=O)NC(C(=O)C(F)(F)F)C(C)C)C(C)C)cc1 (stereo partly specified) | 49 | 56 | 1.8 | – |
| CC(C)[C@H](NS(=O)(=O)c1ccccc1)C(=O)N1CCC[C@H]1C(=O)N[C@H](C(=O)C(F)(F)F)C(C)C | 29 | – | 14 | -48 |
| CC(C)c1cc(C(C)C)c(S(=O)(=O)N[C@H](C(=O)N2CCCC2C(=O)NC(C(=O)C(F)(F)F)C(C)C)C(C)C)c(C(C)C)c1 (stereo partly specified) | -17 | – | 3.2 | -186 |
| CC(=O)Nc1ccc(S(=O)(=O)N[C@H](C(=O)N2CCCC2C(=O)NC(C(=O)C(F)(F)F)C(C)C)C(C)C)cc1 (stereo partly specified) | 2 | 32 | 55 | – |
| CC(C)C(NC(=O)C1CCCN1C(=O)[C@@H](NC(=O)CCC(=O)NS(=O)(=O)c1cccc2ccccc12)C(C)C)C(=O)C(F)(F)F (stereo partly specified) | -80 | – | 6.1 | -212 |
| CC(C)C(NC(=O)C1CCCN1C(=O)[C@@H](NS(=O)(=O)c1ccc2ccccc2c1)C(C)C)C(=O)C(F)(F)F (stereo partly specified) | – | 20 | 2.7 | – |
| COc1ccc(C(=O)N[C@H](C(=O)N2CCCC2C(=O)NC(C(=O)C(F)(F)F)C(C)C)C(C)C)cc1OC (stereo partly specified) | 66 | 46 | 1.1 | – |
| CC(C)[C@H](NC(=O)c1cccnc1)C(=O)N1CCC[C@H]1C(=O)N[C@H](C(=O)C(F)(F)F)C(C)C (HELM PEPTIDE1{[O=C(c1cccnc1)[*:2]].V.P.V.[FC(F)(F)[*:1]]}$$$$V2.0) | -6 | 23 | 7.8 | – |
| CC(C)[C@H](NC(=O)Nc1ccc(F)cc1)C(=O)N1CCC[C@H]1C(=O)N[C@H](C(=O)C(F)(F)F)C(C)C | -3 | 8 | 11 | – |
| CCCN(CC(=O)N[C@H](C(=O)N1CCC[C@H]1C(=O)N[C@H](C(=O)C(F)(F)F)C(C)C)C(C)C)C(C)=O (HELM PEPTIDE1{[ac].[CCCN(CC(=O)[*:2])[*:1]].V.P.V.[FC(F)(F)[*:1]]}$$$$V2.0) | 24 | 78 | 2 | – |
| CC(C)C(NC(=O)C1CCCN1C(=O)[C@@H](NC(=O)c1ccc(C(=O)NCCN(C)C)cc1)C(C)C)C(=O)C(F)(F)F (stereo partly specified) | 20 | 71 | 5.4 | – |
| CC(C)[C@H](NC(=O)c1ccccn1)C(=O)N1CCC[C@H]1C(=O)N[C@H](C(=O)C(F)(F)F)C(C)C | 8 | 44 | 20 | – |
| CC(=O)N(CC(=O)N[C@H](C(=O)N1CCC[C@H]1C(=O)N[C@H](C(=O)C(F)(F)F)C(C)C)C(C)C)Cc1ccccc1 (HELM PEPTIDE1{[ac].[O=C(CN(Cc1ccccc1)[*:1])[*:2]].V.P.V.[FC(F)(F)[*:1]]}$$$$V2.0) | 20 | 36 | 0.96 | – |
| CC(C)C(NC(=O)C1CCCN1C(=O)[C@@H](NC(=O)c1ccc2ccccc2c1)C(C)C)C(=O)C(F)(F)F (stereo partly specified) | 43 | 73 | 0.87 | – |
| CC(C)C(NC(=O)C1CCCN1C(=O)[C@@H](NC(=O)Nc1ccc(C(=O)O)cc1)C(C)C)C(=O)C(F)(F)F (stereo partly specified) ({4Abz-CO}-Val-[ξP]-[ξV]-CF3) | -1 | 48 | 10 | – |

| Compound | Lw/Bw (Mesocricetus auratus [1]) | Reduction (Mesocricetus auratus [2]) [%] | Ki (Neutrophil elastase) [nM] | Reduction (Mesocricetus auratus [3]) [%] |
| --- | --- | --- | --- | --- |
| CC(=O)N[C@H](C(=O)N1CCC[C@H]1C(=O)N[C@H](C(=O)C(F)(F)F)C(C)C)C(C)C (HELM PEPTIDE1{[ac].V.P.V.[FC(F)(F)[*:1]]}$$$$V2.0) | 8 | – | 45 | -120 |
| CC(C)C(NC(=O)C1CCCN1C(=O)[C@@H](NC(=O)c1ccc([N+](=O)[O-])cc1)C(C)C)C(=O)C(F)(F)F (stereo partly specified) | 54 | 4 | 1.2 | – |
| CC(C)C(NC(=O)C1CCCN1C(=O)[C@@H](NC(=O)c1ccc(S(C)(=O)=O)cc1)C(C)C)C(=O)C(F)(F)F (stereo partly specified) | -16 | 58 | 2 | – |
| CC(C)[C@H](NC(=O)Oc1ccc(F)cc1)C(=O)N1CCC[C@H]1C(=O)N[C@H](C(=O)C(F)(F)F)C(C)C | 63 | – | 0.63 | -67 |
| CC(C)[C@H](NC(=O)c1ccc(O)c(O)c1)C(=O)N1CCC[C@H]1C(=O)N[C@H](C(=O)C(F)(F)F)C(C)C | -73 | – | 16 | -41 |
| CC(C)[C@H](NS(=O)(=O)C(F)(F)F)C(=O)N1CCC[C@H]1C(=O)N[C@H](C(=O)C(F)(F)F)C(C)C | 20 | 17 | 150 | – |
| CC(C)[C@H](NC(=O)C(=O)O)C(=O)N1CCC[C@H]1C(=O)N[C@H](C(=O)C(F)(F)F)C(C)C | 2 | 38 | 810 | – |
| CC(C)C(NC(=O)C1CCCN1C(=O)[C@@H](NC(=O)/C=C/c1ccc(C(=O)O)cc1)C(C)C)C(=O)C(F)(F)F (stereo partly specified) | 13 | 68 | 1.8 | – |
| CC(C)C(NC(=O)c1ccc(C(=O)NS(=O)(=O)c2ccc(Br)cc2)cc1)C(=O)N1CCC[C@H]1C(=O)N[C@H](C(=O)C(F)(F)F)C(C)C (stereo partly specified) | -0.5 | 30 | – | – |
| CC(C)[C@H](NC(=O)Nc1ccccc1)C(=O)N1CCC[C@H]1C(=O)N[C@H](C(=O)C(F)(F)F)C(C)C ({NHPh-CO}-Val-Pro-Val-CF3) | -2 | – | 2.6 | -184 |
| CC(C)[C@H](NC(=O)c1ccccc1)C(=O)N1CCC[C@H]1C(=O)N[C@H](C(=O)C(F)(F)F)C(C)C (HELM PEPTIDE1{[O=C(c1ccccc1)[*:2]].V.P.V.[FC(F)(F)[*:1]]}$$$$V2.0) | 62 | – | 6.8 | -7 |
| CC(C)C(NC(=O)C1CCCN1C(=O)[C@@H](NC(=O)c1cc2ccccc2cc1C(=O)O)C(C)C)C(=O)C(F)(F)F (stereo partly specified) | 23 | 53 | 1.7 | – |
| COc1cccc(OC)c1C(=O)N[C@H](C(=O)N1CCCC1C(=O)NC(C(=O)C(F)(F)F)C(C)C)C(C)C (stereo partly specified) | 20 | 177 | 15 | – |
| CC(C)C(NC(=O)C1CCCN1C(=O)[C@@H](NS(=O)(=O)c1c(F)c(F)c(F)c(F)c1F)C(C)C)C(=O)C(F)(F)F (stereo partly specified) | -24 | 27 | 1.6 | – |
| CC(C)C(NC(=O)C1CCCN1C(=O)[C@@H](NC(=O)c1ccc(C(=O)NS(C)(=O)=O)cc1)C(C)C)C(=O)C(F)(F)F (stereo partly specified) | -9 | 43 | 4.2 | – |
| CSc1ccc(C(=O)N[C@H](C(=O)N2CCCC2C(=O)NC(C(=O)C(F)(F)F)C(C)C)C(C)C)cc1 (stereo partly specified) | 20 | 36 | 2.3 | – |
| CC(C)[C@H](NC(=O)c1ccc(F)cc1)C(=O)N1CCC[C@H]1C(=O)N[C@H](C(=O)C(F)(F)F)C(C)C | 44 | 22 | 2.9 | – |
| CC(C)C(NC(=O)C1CCCN1C(=O)[C@@H](NS(=O)(=O)C12CC3CC(CC(C3)C1)C2)C(C)C)C(=O)C(F)(F)F (stereo partly specified) | -36 | 61 | 1.2 | – |
| CC(C)C(NC(=O)C1CCCN1C(=O)[C@@H](NS(=O)(=O)c1ccc(Cl)cc1)C(C)C)C(=O)C(F)(F)F (stereo partly specified) | -41 | 7 | 3.3 | – |
| CC(=O)Oc1cc(OC(C)=O)cc(C(=O)N[C@H](C(=O)N2CCCC2C(=O)NC(C(=O)C(F)(F)F)C(C)C)C(C)C)c1 (stereo partly specified) | – | – | 60 | -12 |
| COC(=O)c1cc(C(=O)N[C@H](C(=O)N2CCCC2C(=O)NC(C(=O)C(F)(F)F)C(C)C)C(C)C)cc(C(=O)OC)c1 (stereo partly specified) | 6 | 6 | 11 | – |
| Cc1ccc(C(=O)N[C@H](C(=O)N2CCC[C@H]2C(=O)N[C@H](C(=O)C(F)(F)F)C(C)C)C(C)C)cc1C | 75 | 55 | 1 | – |

Reference: ChEMBL document CHEMBL1130061, “Discovery and biological activity of orally active peptidyl trifluoromethyl ketone inhibitors of human neutrophil elastase” (J Med Chem, 1997)
